Values quoted from earlier work, collected in patent US20070026077A1 (priority 2003, published 2007).

Experiments:
[1] = white crystalline light powder
[2] = test system: small-cell lung carcinoma; conditions: patients with small-cell lung carcinoma

Structure (SMILES)	hygroscopicity [1]	survival time [2]	tumor disease progression [2]	bound to plasmatic proteins (plasmatic proteins)
CC(=O)CC(c1ccccc1)c1c([O-])c2ccccc2oc1=O.[Na+] (stereo not drawn) [warfarin sodium salt, sodium salt of 3-(α-acetonylbenzyl)-4-hydroxy-coumarin]	hygroscopic	–	–	–
CC(=O)CC(c1ccccc1)c1c(O)c2ccccc2oc1=O (stereo not shown) [warfarin]	–	prolongation of survival time	statistically significant retardation of tumor disease progression	About 97%
